Among the data in patent US20150246902A1, “SUBSTITUED BENZOFURAN COMPOUNDS AND METHODS OF USE THEREOF FOR THE TREATMENT OF VIRAL DISEASES” (priority 2011, published 2015) are IC50 values, retold here.

One assay deals with HCV replicon genotype 1a. Briefly: microbe, parasite or virus in culture. In kind it is cell-based. To be noted: Hepatitis C virus, 96 h, HCV genotype 1a replicon cells, 96 hours incubation, NS3/4A ELISA readout.
The test system of the next assay is HCV replicon genotype 1b. Briefly: microbe, parasite or virus in culture. The class given is cell-based. To be noted: Hepatitis C virus, 96 h, HCV genotype 1b replicon cells, 96 hours incubation, NS3/4A ELISA readout. For orientation: In antiviral work, replicon cells carry a viral genome segment that copies itself.

Structures are written as SMILES.

As to `CNC(=O)c1c(-c2ccc(F)cc2)oc2cc(N(C)S(C)(=O)=O)c(-c3ccc4oc(Cc5ccc(F)cc5)nc4n3)cc12` [Compound 84, 5-(2-(4-fluorobenzyl)oxazolo[4,5-b]pyridin-5-yl)-2-(4-fluorophenyl)-N-methyl-6-(N-methylmethylsulfonamido)benzofuran-3-carboxamide], the results for the IC50 in the assay on HCV replicon genotype 1a and in the assay with HCV replicon genotype 1b were 0.0537 µM and 0.0086 µM, respectively.
Regarding `CNC(=O)c1c(-c2ccc(F)cc2)oc2cc(N(C)S(C)(=O)=O)c(-c3cccc4nc(-c5ccccc5)oc34)cc12` [Compound 85], the figures for the IC50 in the assay on HCV replicon genotype 1a and in the assay with HCV replicon genotype 1b were 0.46 µM and 0.235 µM, respectively.
Regarding `CNC(=O)c1c(-c2ccc(F)cc2)oc2cc(N(C)S(C)(=O)=O)c(-c3cccc4nc(-c5ccc(F)cc5)oc34)cc12` [Compound 86], the figures for the IC50 in the assay on HCV replicon genotype 1a and in the assay with HCV replicon genotype 1b were 0.715 µM and 0.304 µM, respectively.
The like results for `CNC(=O)c1c(-c2ccc(F)cc2)oc2cc(N(C)S(C)(=O)=O)c(-c3ccc4oc(-c5ccc(F)cc5)nc4c3)cc12` [Compound 87] were, in that order, 0.0515 µM and 0.0108 µM.
Consider `CNC(=O)c1c(-c2ccc(F)cc2)oc2cc(N(C)S(C)(=O)=O)c(-c3ccc4nc(-c5ccccc5)cn4c3)cc12` [Compound 88, 2-(4-fluorophenyl)-N-methyl-6-(N-methylmethylsulfonamido)-5-(2-phenylimidazo[1,2-a]pyridin-6-yl)benzofuran-3-carboxamide], for which the IC50 (usually the concentration that inhibits the measured activity by half) came out at 0.0501 µM with HCV replicon genotype 1a and 0.007 µM in the assay with HCV replicon genotype 1b.
As for `CNC(=O)c1c(-c2ccc(F)cc2)oc2cc(N(C)S(C)(=O)=O)c(-c3ccn4cc(-c5ccccc5)nc4c3)cc12` [Compound 89], the results for the IC50 with HCV replicon genotype 1a and with HCV replicon genotype 1b were 0.007 µM and 0.0027 µM, respectively.
The like results for `CNC(=O)c1c(-c2ccc(F)cc2)oc2cc(N(C)S(C)(=O)=O)c(-c3cn4ccnc4cn3)cc12` [Compound 90, 2-(4-fluorophenyl)-5-(imidazo[1,2-a]pyrazin-6-yl)-N-methyl-6-(N-methylmethylsulfonamido)benzofuran-3-carboxamide] were, in that order, 2.18 µM and 0.12 µM.
The like results for `CNC(=O)c1c(-c2ccc(F)cc2)oc2cc(N(C)S(C)(=O)=O)c(-c3cn4c(-c5ccc(F)cc5)cnc4cn3)cc12` [Compound 91, 2-(4-fluorophenyl)-5-(3-(4-fluorophenyl)imidazo[1,2-a]pyrazin-6-yl)-N-methyl-6-(N-methylmethylsulfonamido)benzofuran-3-carboxamide] were, in that order, 0.0482 µM and 0.0081 µM.
Taken in the same sequence, the figures for `CNC(=O)c1c(-c2ccc(F)cc2)oc2cc(N(C)S(C)(=O)=O)c(-c3cn4c(-c5ccc(C(F)(F)F)cc5)cnc4cn3)cc12` [Compound 92] were 0.0129 µM and 0.0051 µM.
For `CNC(=O)c1c(-c2ccc(F)cc2)oc2cc(N(C)S(C)(=O)=O)c(-c3cn4c(-c5ccc(Cl)cc5)cnc4cn3)cc12` [Compound 93], the IC50 in the assay on HCV replicon genotype 1a was determined as 0.0479 µM; in the assay on HCV replicon genotype 1b, 0.0079 µM.
Take `CNC(=O)c1c(-c2ccc(F)cc2)oc2cc(N(C)S(C)(=O)=O)c(-c3ccc4ncc(-c5ccc(C(F)(F)F)cc5)n4n3)cc12` [Compound 94, 2-(4-fluorophenyl)-N-methyl-6-(N-methylmethylsulfonamido)-5-(3-(4-(trifluoromethyl)phenyl)imidazo[1,2-b]pyridazin-6-yl)benzofuran-3-carboxamide]: the results for the IC50 in the assay with HCV replicon genotype 1a and in the assay on HCV replicon genotype 1b were 0.0757 µM and 0.0123 µM, respectively.
Taken in the same sequence, the figures for `CNC(=O)c1c(-c2ccc(F)cc2)oc2cc(N(C)S(C)(=O)=O)c(-c3ccc4ncc(-c5ccc(F)cc5)n4n3)cc12` [Compound 95] were 0.0859 µM and 0.044 µM.
The like results for `CNC(=O)c1c(-c2ccc(F)cc2)oc2cc(N(C)S(C)(=O)=O)c(-c3ccc4nnc(-c5ccc(C(F)(F)F)cc5)n4n3)cc12` [Compound 96, 2-(4-fluorophenyl)-N-methyl-6-(N-methylmethylsulfonamido)-5-(3-(4-(trifluoromethyl)phenyl)-[1,2,4]triazolo[4,3-b]pyridazin-6-yl)benzofuran-3-carboxamide] were, in that order, 0.0345 µM and 0.0165 µM.
The like results for `CNC(=O)c1c(-c2ccc(F)cc2)oc2cc(N(C)S(C)(=O)=O)c(-c3cc(-c4nc5ncccc5o4)c4occc4c3)cc12` [Compound 97, 2-(4-fluorophenyl)-N-methyl-6-(N-methylmethylsulfonamido)-7′-(oxazolo[4,5-b]pyridin-2-yl)-[5,5′-bibenzofuran]-3-carboxamide] were, in that order, 0.0027 µM and 0.0013 µM.
With `CNC(=O)c1c(-c2ccc(F)cc2)oc2cc(N(C)S(C)(=O)=O)c(-c3cc(-c4nc5c(F)cccc5o4)c4occc4c3)cc12` [Compound 98], the IC50 came to 0.0037 µM in the assay with HCV replicon genotype 1a and 0.0041 µM in the assay with HCV replicon genotype 1b.
The like results for `CNC(=O)c1c(-c2ccc(F)cc2)oc2cc(N(C)S(C)(=O)=O)c(-c3cc(-c4cc5ccccc5[nH]4)c4nc(C)cn4c3)cc12` [Compound 99, 5-(8-(1H-indol-2-yl)-2-methylimidazo[1,2-a]pyridin-6-yl)-2-(4-fluorophenyl)-N-methyl-6-(N-methylmethylsulfonamido)benzofuran-3-carboxamide] were, in that order, 0.0031 µM and 0.0052 µM.
The like results for `CNC(=O)c1c(-c2ccc(F)cc2)oc2cc(N(C)S(C)(=O)=O)c(-c3ccc4c(n3)nc(-c3ccccc3)n4C(C)(C)C)cc12` [Compound 100, 5-(1-(tert-butyl)-2-phenyl-1H-imidazo[4,5-b]pyridin-5-yl)-2-(4-fluorophenyl)-N-methyl-6-(N-methylmethylsulfonamido)benzofuran-3-carboxamide] were, in that order, 0.297 µM and 0.073 µM.
As for `CNC(=O)c1c(-c2ccc(F)cc2)oc2cc(N(C)S(C)(=O)=O)c(-c3ccc4[nH]c(-c5ccccc5)nc4n3)cc12` [Compound 101], the IC50 turned out to be 0.0791 µM in the assay on HCV replicon genotype 1a and 0.017 µM with HCV replicon genotype 1b.
Taken in the same sequence, the figures for `CNC(=O)c1c(-c2ccc(F)cc2)oc2cc(N(C)S(C)(=O)=O)c(-c3ccc4[nH]c(-c5ccccc5)nc4c3)cc12` [Compound 102] were 0.0146 µM and 0.0051 µM.
The like results for `CNC(=O)c1c(-c2ccc(F)cc2)oc2cc(N(C)S(C)(=O)=O)c(-c3ccc4[nH]c(-c5ccccc5)cc4c3)cc12` [Compound 103, 2-(4-fluorophenyl)-N-methyl-6-(N-methylmethylsulfonamido)-5-(2-phenyl-1H-indol-5-yl)benzofuran-3-carboxamide] were, in that order, 1.1 µM and 0.101 µM.
Taken in the same sequence, the figures for `CNC(=O)c1c(-c2ccc(F)cc2)oc2cc(N(C)S(C)(=O)=O)c(-c3ccc4c(ccn4C(=O)OC(C)(C)C)c3)cc12` [Compound 104, tert-butyl 5-(2-(4-fluorophenyl)-3-(methylcarbamoyl)-6-(N-methylmethylsulfonamido)benzofuran-5-yl)-1H-indole-1-carboxylate] were 0.179 µM and 0.0189 µM.
`CNC(=O)c1c(-c2ccc(F)cc2)oc2cc(N(C)S(C)(=O)=O)c(-c3ccc4cnn(-c5ccc(F)cc5)c4c3)cc12` [Compound 105, 2-(4-fluorophenyl)-5-(1-(4-fluorophenyl)-1H-indazol-6-yl)-N-methyl-6-(N-methylmethylsulfonamido)benzofuran-3-carboxamide]: the IC50 in the assay on HCV replicon genotype 1a stood at 0.0052 µM; in the assay on HCV replicon genotype 1b, 0.0028 µM.
The like results for `CNC(=O)c1c(-c2ccc(F)cc2)oc2cc(N(C)S(C)(=O)=O)c(-c3ccc4cnn(-c5ccc(C(F)(F)F)cc5)c4c3)cc12` [Compound 107] were, in that order, 0.0083 µM and 0.0061 µM.
Taken in the same sequence, the figures for `CNC(=O)c1c(-c2ccc(F)cc2)oc2cc(N(C)S(C)(=O)=O)c(-c3ccc4cnn(-c5ccc(C#N)cc5)c4c3)cc12` [Compound 108] were 0.0276 µM and 0.0123 µM.
Taken in the same sequence, the figures for `CNC(=O)c1c(-c2ccc(F)cc2)oc2cc(N(C)S(C)(=O)=O)c(-c3cc(F)c4nc(C)n(-c5ccc(F)c(C(N)=O)c5)c4c3)cc12` [Compound 109, 5-(1-(3-carbamoyl-4-fluorophenyl)-4-fluoro-2-methyl-1H-benzo[d]imidazol-6-yl)-2-(4-fluorophenyl)-N-methyl-6-(N-methylmethylsulfonamido)benzofuran-3-carboxamide] were 0.11 µM and 0.0211 µM.
For the molecule `CNC(=O)c1c(-c2ccc(F)cc2)oc2cc(N(C)S(C)(=O)=O)c(-c3cc(F)c4ncn(-c5ccc(F)c(C(N)=O)c5)c4c3)cc12` [Compound 110], the IC50 in the assay on HCV replicon genotype 1a was found to be 0.111 µM; with HCV replicon genotype 1b, 0.0138 µM.
The like results for `CNC(=O)c1c(-c2ccc(F)cc2)oc2cc(N(C)S(C)(=O)=O)c(-c3ccc4nnc(-c5ccc(F)cc5)n4c3)cc12` [Compound 111, 2-(4-fluorophenyl)-5-(3-(4-fluorophenyl)-[1,2,4]triazolo[4,3-a]pyridin-6-yl)-N-methyl-6-(N-methylmethylsulfonamido)benzofuran-3-carboxamide] were, in that order, 0.0048 µM and 0.0019 µM.
For `CNC(=O)c1c(-c2ccc(F)cc2)oc2cc(N(C)S(C)(=O)=O)c(-c3ccc4ncc(-c5ccc(F)cc5)n4c3)cc12` [Compound 112, 2-(4-fluorophenyl)-5-(3-(4-fluorophenyl)imidazo[1,2-a]pyridin-6-yl)-N-methyl-6-(N-methylmethylsulfonamido)benzofuran-3-carboxamide], the IC50 in the assay with HCV replicon genotype 1a is 0.0124 µM; in the assay with HCV replicon genotype 1b, 0.0071 µM.
Taken in the same sequence, the figures for `CNC(=O)c1c(-c2ccc(F)cc2)oc2cc(N(C)S(C)(=O)=O)c(-c3ccc4nc(-c5ccc(F)cc5)cn4n3)cc12` [Compound 113] were 0.186 µM and 0.0149 µM.
